Where “and” joins values, the source holds several entries; their conditions need not be identical. Equal entries are not always repeated.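 The compound was tested at five concentrations on cells cultured in 96-well plates, with a 48-hour exposure period. GI50 marks 50% less growth. TGI marks complete inhibition of growth.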 *1 amine or outer side, *2 acyl side, *3 side chain or, on linkers, in order; H or OH if unused. Where a SMILES comes first, the peptide text is derived from it. Bridges are numbered along the chain shown (N, C = ends). [ ]: non-standard residue; d: D form. The star is where a group is joined. Phe(3,5-F2) = N[C@@H](Cc1cc(F)cc(F)c1)C(=O)O; Pro(4R-Me) = C[C@H]1CN[C@H](C(=O)O)C1; aThr = C[C@H](O)[C@H](N)C(=O)O; Pip = O=C(O)[C@@H]1CCCCN1; X10 = Fc1cc(C2CC2)ccc1N*; CO = O=C([*:1])[*:2]
Legend:
Assay in all cases: DTP human tumour cell line panel, 48 h
[1] = system: TK-10 renal
[2] = system: RXF 393 renal
[3] = system: HL-60(TB) leukemia
[4] = system: KM12 colon
[5] = system: OVCAR-3 ovarian
[6] = system: SR leukemia
[7] = system: UACC-257 melanoma
[8] = system: DU-145 prostate
[9] = system: MDA-MB-435
[10] = system: MCF7 breast

Row | SMILES | TGI [1] | TGI [2] | TGI [3] | TGI [4] | TGI [5] | TGI [6] | TGI [7] | TGI [8] | TGI [9] | TGI [10] | GI50 [1] | GI50 [2] | GI50 [8] | GI50 [9] | GI50 [10] | GI50 [3] | GI50 [4] | GI50 [5] | GI50 [6] | GI50 [7]
1 | COc1cc2cc(OC)c3cc4c(cc3c2c(OC)c1OC)OCO4 | > 84.4 µM | > 100 µM | 45.7 µM | > 51.2 µM | > 100 µM | 82.6 µM | > 100 µM | – | – | – | – | – | – | – | – | – | – | – | – | –
2 | O=C1CC(NC(=O)C(F)(F)F)c2c(Br)sc(N3CCNCC3)c21 (configuration not stated) | > 100 µM | > 100 µM | > 100 µM | > 100 µM | > 100 µM | – | > 100 µM | > 100 µM | > 100 µM | > 100 µM | – | – | – | – | – | – | – | – | – | –
3 | Cc1ccc(CN2CCC(C(=O)Nc3ccc(-c4cc5ccccc5[nH]4)cc3)CC2)o1 | > 100 µM | > 100 µM | > 100 µM | > 100 µM | > 100 µM | > 100 µM | > 100 µM | > 100 µM | > 100 µM | > 100 µM | > 100 µM | > 100 µM | > 100 µM | > 100 µM | > 100 µM | > 100 µM | 83.9 µM | > 100 µM | 4.3 µM | > 100 µM
4 | Cc1c(C(=O)CC(=O)C(=O)Nc2ccccc2C(F)(F)F)[n+](=O)c2ccccc2n1[O-] | > 100 µM | 80.1 µM | 66.2 µM | 61.6 µM | 8.37 µM | 26.6 µM | 36.2 µM | – | – | – | – | – | – | – | – | – | – | – | – | –
5 | CNS(=O)(=O)NNS(=O)(=O)c1ccccc1 | > 100 µM | > 100 µM | > 100 µM | > 100 µM | > 100 µM | > 100 µM | > 100 µM | – | – | – | – | – | – | – | – | – | – | – | – | –
6 | NS(=O)(=O)c1ccc2c(c1)OCCOCCOCCOCCO2 | > 100 µM | – | > 100 µM | > 100 µM | – | > 100 µM | > 100 µM | > 100 µM | > 100 µM | > 100 µM | – | – | – | – | – | – | – | – | – | –
7 | C[C@@H]1C[C@H]2C(=O)O[C@@H](C)[C@H](NC(=O)[C@H](Cc3cc(F)cc(F)c3)NC(=O)Nc3ccc(C4CC4)cc3F)C(=O)N3CCC[C@H]3C(=O)N3CCCC[C@H]3C(=O)N[C@@H](C)C(=O)N2C1 ({X10-CO}-[Phe(3,5-F2)][aThr]P[Pip]A[Pro(4R-Me)]; ester 2-C) | > 35.1 µM | 3.99 µM | 1.82 µM | 10.3 µM | 3.27 µM | 5.67 µM | 10.7 µM | > 56.9 µM | 2.71 µM | 13.9 µM | 0.343 µM | 0.233 µM | 0.053 µM | 0.0423 µM | 0.0381 µM | 0.0387 µM | 0.0909 µM | 0.043 µM | 0.0633 µM | 0.0413 µM
8 | NC(N)=NS(=O)(=O)c1ccc(Nc2c3ccccc3nc3c(C(=O)NCCO)cccc23)cc1 | – | – | – | – | – | – | – | – | – | – | 18.7 µM | 19.6 µM | 15.3 µM | 23.3 µM | 13.5 µM | 16.9 µM | 15.4 µM | 17.1 µM | 30.7 µM | 39.4 µM
9 | C[C@@H](Oc1cc(-n2cnc3ccc(CN4CCN(C)CC4)cc32)sc1C(N)=O)c1ccccc1C(F)(F)F | 17.3 µM and > 10 µM | 10.2 µM and > 10 µM | < 0.0179 µM | 12.7 µM and > 10 µM | 16.7 µM and > 10 µM | 1.75 µM and 1.44 µM | > 10 µM | 0.652 µM and 0.188 µM | – | 15.2 µM and > 10 µM | 2.69 µM and 1.46 µM | < 0.0141 µM and 0.0224 µM | < 0.0134 µM and 0.00975 µM | – | < 0.01 µM and 0.00478 µM | < 0.01 µM and 0.00595 µM | < 0.012 µM and 0.00556 µM | < 0.0152 µM and 0.00528 µM | < 0.01 µM and 0.00514 µM | 2.03 µM
10 | Cc1cc(-c2nc(C(=O)Nc3cc4oc(N5CCOCC5)nc4nc3N3CC[C@@H](O)C3)co2)ccn1 | > 100 µM | > 100 µM | > 100 µM | > 100 µM | > 100 µM | > 100 µM | > 100 µM | > 100 µM | > 100 µM | > 100 µM | 26.7 µM | 17.9 µM | 46.9 µM | 40.7 µM | 84.1 µM | 35.2 µM | 3.46 µM | 27 µM | 30.9 µM | 88.8 µM
11 | O=[N+]([O-])c1ccc2c(c1)/C(=N/N=C1c3ccccc3Cc3ccccc31)c1cc([N+](=O)[O-])cc([N+](=O)[O-])c1-2 | 11.5 µM | 8.59 µM | > 22.8 µM | 6.34 µM | 3.11 µM | > 25.7 µM | 4.38 µM | 13.7 µM | 3.38 µM | 3.64 µM | – | – | – | – | – | – | – | – | – | –
12 | NC(=O)NO.O.O.O.O.O.O.O.O.O.O.O.[Ge].[Ge].[Ge].[Ge].[Ge].[O]=[Ge].[O]=[Ge].[O]=[Ge].[O]=[Ge].[O]=[Ge][OH] | > 100 µM | > 100 µM | 12.6 µM | > 100 µM | > 100 µM | > 100 µM | > 100 µM | – | – | – | – | – | – | – | – | – | – | – | – | –
13 | CCCCCCCCCCCC(=O)OCCOCCOCCOCCOCCOCc1ccccc1 | > 100 µM | > 100 µM | > 100 µM | > 100 µM | > 100 µM | > 100 µM | > 100 µM | – | – | – | – | – | – | – | – | – | – | – | – | –
14 | CCOC(=O)C(C)(C)Oc1ccc2c(-c3ccccc3)cc(=O)oc2c1 | > 100 µM | – | 63.8 µM | – | > 100 µM | 88.7 µM | 75.5 µM | – | – | – | – | – | – | – | – | – | – | – | – | –
15 | FC(F)(F)c1cccc(Nc2nc(-c3ccccc3)nc3ncccc23)c1 | 10.5 µM | 5.66 µM | 6.93 µM | > 100 µM | 28 µM | 13.3 µM | – | 21.8 µM | 22.8 µM | 14.7 µM | 2.61 µM | 2.21 µM | 4.72 µM | 3.77 µM | 3.72 µM | 2.51 µM | 4.3 µM | 5.2 µM | 2.61 µM | –
16 | CN(C)N=Nc1ccc(C(N)=O)cc1 | > 100 µM | > 100 µM | > 100 µM | > 100 µM | > 100 µM | > 100 µM | > 100 µM | – | – | – | – | – | – | – | – | – | – | – | – | –
17 | C[N+](C)(C)CC(=O)N/N=C(/CC(=O)CC(C1=C(O)c2ccccc2OC1)c1ccccc1)C(=O)Nc1cccc(Cl)c1 (configuration not stated) | > 100 µM | > 100 µM | > 100 µM | > 100 µM | > 100 µM | > 100 µM | > 100 µM | > 100 µM | – | > 100 µM | – | – | – | – | – | – | – | – | – | –
18 | OCc1cc2ccccc2c2c3c(ccc12)OCO3 | 79.1 µM | – | 66.2 µM | 137 µM | 168 µM | 76.8 µM | 82.3 µM | 170 µM | 160 µM | 125 µM | 31.2 µM | – | 44 µM | 39.3 µM | 26.5 µM | 23.7 µM | 35 µM | 36.4 µM | 28.4 µM | 28.1 µM

— PubChem BioAssay (NCI)
